Experimental data reported in paper PMC3700763, “First human dose-escalation study with remogliflozin etabonate, a selective inhibitor of the sodium-glucose transporter 2 (SGLT2), in healthy subjects and in subjects with type 2 diabetes mellitus” (BMC Pharmacology & Toxicology, 2013).
Marks after values point to notes of the source that are not given here.

Key:
[1] = Fluid balance, healthy subjects; type: in vivo, human; conditions: mean (SD)
Method: (§1) Urine samples were collected at pre-dose, and over a series of intervals (0–2, 2–4, 4–6, 6–8, 8–12 and 12–24 h post-dose) for the analysis of creatinine, glucose and electrolytes (Na, K and Cl). All fluid intake was recorded, as well as urine volume, over the 24 hours before and after dosing in each treatment period. Urine was tested for protein on the first morning void of day -1 and 24 h after dosing.

[2] = rats; cited from earlier work
[3] = Adverse events after single oral doses, healthy subjects (Part A); type: in vivo, human; conditions: for Blood creatine phosphokinase increased (adverse events reported by >1 subject in total) / Diarrhea (drug-related adverse events) / Dizziness (drug-related adverse events) / Headache (adverse events reported by >1 subject in total) / Headache (drug-related adverse events) / Hot flush (drug-related adverse events) / At least one adverse event: healthy subjects; for At least one adverse event: n = 8
Method: This double-blind, randomized, placebo-controlled, single escalating-dose crossover study was conducted in two parts: Part A consisted of a randomized, dose-escalation in healthy subjects; Part B was of similar design, but conducted in subjects with T2DM and included an evaluation of pharmacodynamics using a 50 g oral glucose tolerance test (OGTT).
Ten healthy subjects were evaluated in 5 study sessions, each separated by approximately 2 weeks. At each study session, subjects received either an oral dose of remogliflozin etabonate or placebo after an overnight fast. Remogliflozin etabonate doses were 20 mg, 50 mg, 150 mg, 500 mg and 1000 mg. Over the course of participation in the study, each subject received 4 of the 5 active remogliflozin etabonate doses and 1 dose of placebo (4:1 active to placebo ratio per treatment period). The available safety and PK results from each dosing period were evaluated before proceeding to the next dose level.
All subjects were admitted to the unit two nights prior to receiving study drug to establish baseline safety parameters and fluid intake levels over a 36 h period. Subjects remained in the unit for at least 24 h after doses were administered for monitoring of clinical laboratory parameters exploratory biomarkers, vital signs, ECGs and adverse events. While confined to the clinical research unit, all subjects received meals standardized with respect to calories, fat, protein, carbohydrate, and sodium content; however, detailed dietary information was not captured in this study. In Part A, subjects were dosed following an overnight fast; lunch and dinner were provided at 4 and 10 h after dosing, respectively. Fifteen minutes after dosing in each treatment period in Part B, a fasting OGTT was performed using 50 g glucose (administered as 50 g Glucola™). A 50 g glucose load was chosen since the OGTT was being performed in subjects already known to have diabetes. The glucose drink was consumed by subjects within approximately 5 minutes. Blood samples for the measurement of glucose, insulin, and intact glucagon-like peptide 1 (GLP-1) were collected for 24 hours following dose administration. Provided that there were no safety or tolerability concerns, subjects were released from the clinic on day 2 of each treatment period until their return for the next treatment or follow-up period. Each subject was involved in the study for approximately 8 weeks (from screening to follow-up).

[4] = 24-h urine electrolyte excretion, T2DM subjects; type: in vivo, human; conditions: mean (SD)
Method: as §1

[5] = Urine beta-2 microglobulin (exploratory renal toxicity biomarker), T2DM subjects; type: in vivo, human; conditions: one T2DM subject
Method: Urine beta-2 microglobulin levels, an exploratory biomarker that was measured as a potential early indicator of renal toxicity, were within the normal range at both baseline and after treatment for all subjects except for two subjects with diabetes.

[6] = Fluid balance, T2DM subjects; type: in vivo, human; conditions: mean (SD)
Method: as §1

[7] = Plasma glucose, healthy subjects; type: in vivo, human; conditions: mean, very similar between placebo and remogliflozin etabonate periods
Method: Blood samples for glucose were taken at 0 (pre-dose), and 1, 2, 4, 8 and 12 h after dosing in each treatment period (Part A). For Part B, blood samples for glucose, insulin and GLP-1 were taken at check-in on day -2, and at 0 h (pre-dose), and 0.5, 1, 1.5, 2, 4 h (prior to lunch), 4.5, 5, 6, 8, 10, 12 and 24 h after dosing on day 1 of each treatment period.
For glucose, plasma was analyzed using a YSI 2300 Glucose Analyzer (Yellow Springs International Life Sciences, Yellow Springs, OH, USA). For insulin, plasma was rapidly prepared and frozen at -70°C until analyzed by LabCorp (San Diego, CA, USA) using a chemiluminescent immunometric assay method (Siemen’s Immulite 2000 analyzer with Immulite Insulin Kit L2KIN2).

[8] = -24 h to pre-dose (baseline before dosing), 50 mg period
[9] = -24 h to pre-dose (baseline before dosing), 500 mg period

Fluid balance (total fluid intake minus total urine volume) ([1]; 0–12 h post-dose, 20 mg): 243 (1161) mL
Fluid balance (total fluid intake minus total urine volume) ([1]; 0–12 h post-dose, 50 mg): -570 (582) mL
Fluid balance (total fluid intake minus total urine volume) ([1]; 0–12 h post-dose, 150 mg): -86 (909) mL
Fluid balance (total fluid intake minus total urine volume) ([1]; 0–12 h post-dose, 500 mg): -159 (531) mL
Fluid balance (total fluid intake minus total urine volume) ([1]; 0–12 h post-dose, 1000 mg): -273 (331) mL
Fluid balance (total fluid intake minus total urine volume) ([1]; 12–24 h post-dose, 20 mg): -581 (387) mL
Fluid balance (total fluid intake minus total urine volume) ([1]; 12–24 h post-dose, 50 mg): -551 (530) mL
Fluid balance (total fluid intake minus total urine volume) ([1]; 12–24 h post-dose, 150 mg): -564 (478) mL
Fluid balance (total fluid intake minus total urine volume) ([1]; 12–24 h post-dose, 500 mg): -424 (334) mL
Fluid balance (total fluid intake minus total urine volume) ([1]; 12–24 h post-dose, 1000 mg): -495(367) mL
Fluid balance (total fluid intake minus total urine volume) ([1]; -24 h to pre-dose (baseline before dosing), 20 mg period): -460 (1311) mL
Fluid balance (total fluid intake minus total urine volume) [1, 8]: -338 (525) mL
Fluid balance (total fluid intake minus total urine volume) ([1]; -24 h to pre-dose (baseline before dosing), 150 mg period): -512 (731) mL
Fluid balance (total fluid intake minus total urine volume) [1, 9]: -278 (1250) mL
Fluid balance (total fluid intake minus total urine volume) ([1]; -24 h to pre-dose (baseline before dosing), 1000 mg period): -126 (798) mL
Urinary chloride excretion ([4]; 50 mg single dose, n = 5): 168 (23.9)^c mmol
Urinary potassium excretion ([4]; 50 mg single dose, n = 5): 65.8 (4.5)^c mmol
Urinary sodium excretion ([4]; 50 mg single dose, n = 5): 173 (35.5)^c mmol
Urinary chloride excretion ([4]; 500 mg single dose): 287 (147) mmol
Urinary potassium excretion ([4]; 500 mg single dose): 108 (65.8) mmol
Urinary sodium excretion ([4]; 500 mg single dose): 301 (128) mmol
Fluid balance (total fluid intake minus total urine volume) ([6]; 0–12 h post-dose, 50 mg): -78(433) mL
Fluid balance (total fluid intake minus total urine volume) ([6]; 0–12 h post-dose, 500 mg): -29 (749) mL
Fluid balance (total fluid intake minus total urine volume) ([6]; 12–24 h post-dose, 50 mg): -803 (658) mL
Fluid balance (total fluid intake minus total urine volume) ([6]; 12–24 h post-dose, 500 mg): -1088(679) mL
Fluid balance (total fluid intake minus total urine volume) [6, 8]: -504 (294) mL
Fluid balance (total fluid intake minus total urine volume) [6, 9]: 188 (1879) mL
Fluid balance (total fluid intake minus total urine volume) ([6]; -24 h to pre-dose (baseline before dosing), 500 mg period, listed as remogliflozin etabonate): +188 mL
SMILES: CCOC(=O)OC[C@H]1O[C@@H](Oc2nn(C(C)C)c(C)c2Cc2ccc(OC(C)C)cc2)[C@H](O)[C@@H](O)[C@@H]1O [Remogliflozin etabonate, remogliflozin etabonate]
Urinary glucose excretion [2]: concentration-dependent increase
Tolerability ([3]; all subjects, single oral doses 20-1000 mg, no deaths, serious adverse events or withdrawals): generally well-tolerated
Blood creatine phosphokinase increased (adverse events reported by >1 subject in total) ([3]; 20 mg single oral dose): 0 n (%)
Diarrhea (drug-related adverse events) ([3]; 20 mg single oral dose): 1 (13) n (%)
Dizziness (drug-related adverse events) ([3]; 20 mg single oral dose): 0 n (%)
Headache (adverse events reported by >1 subject in total) ([3]; 20 mg single oral dose): 1 (13) n (%)
Headache (drug-related adverse events) ([3]; 20 mg single oral dose): 1 (13) n (%)
Hot flush (drug-related adverse events) ([3]; 20 mg single oral dose): 0 n (%)
At least one adverse event ([3]; 20 mg single oral dose): 2 (25) n (%)
Blood creatine phosphokinase increased (adverse events reported by >1 subject in total) ([3]; 50 mg single oral dose): 0 n (%)
Diarrhea (drug-related adverse events) ([3]; 50 mg single oral dose): 0 n (%)
Dizziness (drug-related adverse events) ([3]; 50 mg single oral dose): 0 n (%)
Headache (adverse events reported by >1 subject in total) ([3]; 50 mg single oral dose): 1 (13) n (%)
Headache (drug-related adverse events) ([3]; 50 mg single oral dose): 1 (13) n (%)
Hot flush (drug-related adverse events) ([3]; 50 mg single oral dose): 0 n (%)
At least one adverse event ([3]; 50 mg single oral dose): 3 (38) n (%)
Blood creatine phosphokinase increased (adverse events reported by >1 subject in total) ([3]; 150 mg single oral dose): 0 n (%)
Diarrhea (drug-related adverse events) ([3]; 150 mg single oral dose): 0 n (%)
Dizziness (drug-related adverse events) ([3]; 150 mg single oral dose): 0 n (%)
Headache (adverse events reported by >1 subject in total) ([3]; 150 mg single oral dose): 0 n (%)
Headache (drug-related adverse events) ([3]; 150 mg single oral dose): 0 n (%)
Hot flush (drug-related adverse events) ([3]; 150 mg single oral dose): 0 n (%)
At least one adverse event ([3]; 150 mg single oral dose): 1 (13) n (%)
Blood creatine phosphokinase increased (adverse events reported by >1 subject in total) ([3]; 500 mg single oral dose): 1 (13) n (%)
Diarrhea (drug-related adverse events) ([3]; 500 mg single oral dose): 0 n (%)
Dizziness (drug-related adverse events) ([3]; 500 mg single oral dose): 0 n (%)
Headache (adverse events reported by >1 subject in total) ([3]; 500 mg single oral dose): 2 (25) n (%)
Headache (drug-related adverse events) ([3]; 500 mg single oral dose): 0 n (%)
Hot flush (drug-related adverse events) ([3]; 500 mg single oral dose): 0 n (%)
At least one adverse event ([3]; 500 mg single oral dose): 3 (38) n (%)
Blood creatine phosphokinase increased (adverse events reported by >1 subject in total) ([3]; 1000 mg single oral dose): 0 n (%)
Diarrhea (drug-related adverse events) ([3]; 1000 mg single oral dose): 0 n (%)
Dizziness (drug-related adverse events) ([3]; 1000 mg single oral dose): 1 (13) n (%)
Headache (adverse events reported by >1 subject in total) ([3]; 1000 mg single oral dose): 1 (13) n (%)
Headache (drug-related adverse events) ([3]; 1000 mg single oral dose): 1 (13) n (%)
Hot flush (drug-related adverse events) ([3]; 1000 mg single oral dose): 1 (13) n (%)
At least one adverse event ([3]; 1000 mg single oral dose): 1 (13) n (%)
Time for drug-related beta-2 microglobulin elevation to return to normal ([5]; 500 mg): ≤ 4 days
Urine beta-2 microglobulin, elevation ([5]; 11 days after 500 mg, attributed by investigator to other concomitant disease): 2.5 µg/mL
Urine beta-2 microglobulin, drug-related elevation ([5]; day 1 after 500 mg, normal <0.3 μg/mL): 1.62 µg/mL
Plasma glucose AUC 0–4 h [7]: approximately 18 mmol•h/L
Plasma glucose AUC 0–12 h [7]: 55 to 59 mmol·h/L
